These results are taken from BindingDB's records for PubMed 33333396 (National University of Ireland Galway, 2021).

By Ki is commonly meant a measure of affinity in units of concentration, obtained from inhibition or displacement. High values mean a looser hold on the target, low ones a stronger hold on the target. A word on the IC50: it is the concentration that inhibits the measured activity by half.

Assay [1] addresses T1, Bcl-2 homologous antagonist/killer (Homo sapiens, UniProt Q16611).
T1 sequence (Q16611 whole entry): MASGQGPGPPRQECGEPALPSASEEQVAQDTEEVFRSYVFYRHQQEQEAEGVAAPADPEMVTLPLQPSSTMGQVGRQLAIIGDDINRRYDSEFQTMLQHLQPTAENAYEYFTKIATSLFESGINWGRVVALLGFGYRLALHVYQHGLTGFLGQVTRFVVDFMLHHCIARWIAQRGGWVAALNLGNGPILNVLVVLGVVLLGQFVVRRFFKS
Nature of the assay: Binding affinity to Bak/Mcl-1 (unknown origin) protein protein interaction by fluorescence polarization assay.

For assay [2], the target named is T1, Bcl-2 homologous antagonist/killer. As to the kind of experiment: Inhibition of Mcl-1/Bak (unknown origin).

In the case of `CC(C)Oc1cc(C(=O)Nc2ccc(C(=O)Nc3ccc(C(=O)O)cc3OC(C)C)nc2OC(C)C)ccc1N`, the Ki in assay [1] was found to be 1790 nM.
As to `Cc1cc2c(C(=O)NC(C)c3ccc(Cl)cc3)c(O)c(O)cc2c(O)c1-c1c(C)cc2c(C(=O)NC(C)c3ccc(Cl)cc3)c(O)c(O)cc2c1O` (configuration not stated) [Apogossypol derivative, 8k], in assay [2], half-maximal inhibition (IC50) required 230 nM.
